Data set [1] can be described thus: pKa determination by acid titration. Type of data set: physicochemical. The following applies: acid titration in water, Gran plot, 4 replicates. As for the experimental part: The pKa of each compound was measured by acid titration. […] This procedure was repeated 4 times for each compound.
A short description of data set [2]: Octanol-water partition coefficient (logD) at pH 7.4, modified shake flask method. Type of data set: physicochemical. The following applies: pH 7.4, 4 replicates. As to the method:
The octanol-water partition coefficient (logD) at pH 7.4 was determined using a modified version of the shake flask method. Briefly, PBS (900 µL), 1-octanol (900 µL) and a 10 mg/mL aqueous solution of each compound (2 µL) were added to a 2 mL HPLC vial. The compounds were partitioned between the layers via vortexing and centrifuged at 1,000 g for 1 min to allow for phase separation. A portion (10 µL) was taken from each layer (autoinjector was set up to draw volume at two different heights) and analyzed by HPLC. The relative concentration in each phase was determined by integrating the area under each peak and comparing the ratio of the areas from the octanol and aqueous layers. A calibration curve was performed to ensure that the concentrations detected were within the linear range of the detector. This procedure was repeated 4 times for each compound.

For a further data set, the target named is T1, Shaker K+ channel (Drosophila melanogaster, UniProt P08510, DEL6-46).
T1 construct: expressed in transfected cells; host or cells: Xenopus laevis oocytes injected with in vitro transcribed cRNA (cDNA clone from the Bezanilla laboratory)
Put plainly: cell-based. It counts as cell-based, D. melanogaster. The note with it: for δ (fractional distance through the membrane electrical field): Woodhull fit of IC50 vs voltage curves. As to the method: K^+ currents were measured in Xenopus oocytes expressing the commonly studied voltage-gated K^+ channel Shaker from D. melanogaster. In order to determine the relative blocking capacity, each drug was applied to the same oocyte at increasing concentrations ranging from 1 to 10,000 μM. Then, the relative current was determined as the ratio between the maximal amplitude of the K^+ current in the absence and in the presence of each drug. […] The Hill equation (Eq. 1) was fitted to the dose-response curves and used to calculate the IC50 for each drug at pH 7.4.
A sample of cDNA clone encoding for Shaker voltage-gated K^+ channel from D. melanogaster with inactivation removed[51] was generously provided by the laboratory of Prof. Francisco Bezanilla at The University of Chicago. The DNA was amplified, linearized with Not I enzyme (New England Biolabs, Inc., Ipswich, MA, USA) and transcribed in vitro using the T7 promoter mMESSAGE cRNA kit (Ambion, Austin, Tex., USA).
Shaker channel was heterologously expressed in Xenopus laevis oocytes. Only mature Xenopus laevis frogs (Aquanimals SA de CV, Queretaro, Mexico) were used as oocytes suppliers. A volume of 1−3 mL from the ovary lobes was extracted via survival surgery under anesthesia. All methods involving live animals were performed in accordance with relevant guidelines and regulations and with the approval of the Comité Institucional del Cuidado y Uso de Animales en el Laboratorio (CICUAL-CUCEI-UDG). Subsequently, oocytes were isolated with the treatment of collagenase type II (Worthington Biochemical Corp., NJ, USA) under mechanical agitation. After the isolation with collagenase, each oocyte was injected with 15–25 ng of RNA encoding for the Shaker ion channel and incubated for 8–12 h at 17 °C in a Standard Oocytes Saline (SOS) solution containing (in mM): 100 NaCl, 1 MgCl2, 10 HEPES, 2 KCl and 1.8 CaCl2 with 50 μg/mL gentamycin at pH 7.5.
All chemical compounds for this study were acquired from Sigma-Aldrich (Sigma-Aldrich Co., St. Louis, MO, USA) and Chem-Impex International (Chem-Impex International, Inc. Wood Dael, IL, USA) unless otherwise indicated. Electrophysiology measurements were conducted using the methodology of cut-open oocyte voltage clamp (COVC)[52]. For COVC procedures, the internal recording solution contained (in mM): 120 KOH, 2 EGTA, and 20 HEPES. The external recording solution was composed (in mM) by: 12 KOH, 2 Ca(OH)2, 105 NMDG (N-methyl-D-glucamine)-methylsufonate (MES), and 20 mM HEPES. For measurements carried out at pH of 6.8 and 7.4, the pH of both solutions was adjusted with MES. For measurements carried out at pH = 9.1, HEPES was replaced by 2-(cyclohexylamino)ethanesulfonic acid (CHES).
K^+ currents were recorded in the same oocyte, first in absence (IK) and then in presence of each drug (II). IK was elicited by depolarizing the oocyte membrane with a voltage protocol that consisted in steps of 50 ms from −100 to 50 mV in increments of 10 mV. […] The integrity and stability of each oocyte were continuously monitored throughout the experiment.
Ionic currents were amplified and digitized with the Oocyte Clamp Amplifier CA-1A (Dagan Corporation, Minneapolis, MN, USA) and the USB-1604-HS-2AO Multifunction Card (Measurement Computing, Norton, MA, USA), respectively, and controlled with the GpatchMC64 program (Department of Anesthesiology, UCLA, Los Angeles, CA, USA) via a PC. Data were sampled at 100 kHz and filtered at 10 kHz. All the experiments were performed at room temperature (21–23 °C).
Ion currents recordings were analyzed with Analysis (Department of Anesthesiology, UCLA, Los Angeles, CA, USA) and OriginPro 8 (OriginLab Corporation, Northampton, MA, USA.) programs.
Mean values of data ± standard deviation (s.d.) are given or plotted and the number of experiments is denoted by n. The 95% of confidence interval (IC95) is denoted as [Upper limit-Lower limit]; where Upper limit = 10^(logIC50+s.d) and Lower limit = 10^(logIC50−s.d) .

The conditions of data set [3]: cited from earlier work.
The mark [4] stands for this setting: 1-octanol/PBS, pH 7.4, octanol/water (PBS), read-out: logD.
Where [5] appears, read: 0 mV, pH 6.8, Hill fit, read-out: IC50.
Setting [6] is: 0 mV, pH 7.4, Hill fit, read-out: IC50.
Where [7] appears, read: 0 mV, pH 9.1, Hill fit, read-out: IC50.
Where [8] appears, read: 40 mV, pH 7.4, Hill equation fit, read-out: IC50.
The mark [9] stands for this setting: fit of IC50 vs voltage curves (10 to 50 mV) with Woodhull model, mean ± SD, read-out: IC50 at V = 0 mV (Woodhull parameter).
The mark [10] stands for this setting: over the voltage values studied, Fig. 4 shows 10 to 50 mV, read-out: IC50 increase with voltage (from lowest to highest voltage).
The mark [11] stands for this setting: IC50, 40 mV, pH 7.4, Hill equation fit.
[12] abbreviates: IC50 at V = 0 mV (Woodhull parameter), fit of IC50 vs voltage curves (10 to 50 mV) with Woodhull model, mean ± SD.
Setting [13] is: IC50 increase with voltage (from lowest to highest voltage), over the voltage values studied, Fig. 4 shows 10 to 50 mV.

A word on the pKa: it is the pH at which an ionisable group is half protonated. A word on the logD: it is lipophilicity at a set pH, counting ionised and neutral species. Broadly, the IC50 is the concentration needed to halve the response being measured.

Where “and” joins values, the source holds several entries; their conditions need not be identical. Equal values may be shown once. Read-outs that look alike come from different tables or passages of the source.

T1 sequence (P08510 other isoform, or with tags, fused parts or gaps DEL6-46): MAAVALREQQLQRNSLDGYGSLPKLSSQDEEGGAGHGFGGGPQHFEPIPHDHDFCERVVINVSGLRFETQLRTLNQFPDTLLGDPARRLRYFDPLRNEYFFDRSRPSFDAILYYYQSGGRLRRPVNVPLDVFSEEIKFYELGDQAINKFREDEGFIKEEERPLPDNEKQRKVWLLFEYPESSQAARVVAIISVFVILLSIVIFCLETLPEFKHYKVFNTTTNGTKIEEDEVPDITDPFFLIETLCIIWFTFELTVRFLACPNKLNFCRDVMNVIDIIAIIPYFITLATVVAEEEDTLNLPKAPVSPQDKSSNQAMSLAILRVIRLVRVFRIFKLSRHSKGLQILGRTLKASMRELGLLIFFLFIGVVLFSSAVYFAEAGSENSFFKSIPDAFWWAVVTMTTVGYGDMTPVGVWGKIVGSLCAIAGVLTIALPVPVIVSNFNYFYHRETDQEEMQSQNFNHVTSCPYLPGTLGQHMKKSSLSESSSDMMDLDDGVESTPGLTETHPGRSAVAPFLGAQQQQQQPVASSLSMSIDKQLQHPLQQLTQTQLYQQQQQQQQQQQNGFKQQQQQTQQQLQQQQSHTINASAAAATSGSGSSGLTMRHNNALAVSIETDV

Consider `Nc1ccncc1` [4AP, 4-aminopyridine, reference compound], for which the pKa in data set [1] was 9.58 ± 0.07; in data set [1] (water, read-out: pKa), greater than 9. The logD in data set [2] (octanol/water (PBS)) is −1.48 and −1.478 ± 0.014. Further, the “δ (fractional distance through the membrane electrical field)” value at Shaker K+ channel amounted to 0.41 ± 0.08.

Turning to `Nc1ccnc(C(F)(F)F)c1` [2CF34AP, 2-trifluoromethyl-4-aminopyridine], the pKa in data set [1] is 7.0 ± 0.4; in data set [1] (water, read-out: pKa), less than 8. Also, the values for the logD in data set [2] (setting [4]) and in data set [2] (octanol/water (PBS)) were 1.48 and 0.906 ± 0.006, respectively. Besides, the IC50 came out at 10400 µM at Shaker K+ channel (setting [5]), 11900 µM at Shaker K+ channel (setting [6]), 18200 µM at Shaker K+ channel (setting [7]) and 12800 µM on Shaker K+ channel (setting [8]). For the same compound, the “blocking of the channel” value at Shaker K+ channel (at 10 mM, pH 7.4, 40 mV) is listed as ~ 50%.

As to `Nc1ccncc1F` [3F4AP, 3-fluoro-4-aminopyridine, reference compound], the pKa in data set [1] was 7.65 ± 0.15; in data set [1] (water, read-out: pKa), less than 8; in data set [3], 7.6. Besides, the logD in data set [2] (setting [4]) was found to be 0.41; in data set [2] (octanol/water (PBS)), 0.414 ± 0.002. For the same compound, the IC50 on Shaker K+ channel (setting [5]) was 82 µM; at Shaker K+ channel (setting [6]), 160 µM; on Shaker K+ channel (setting [7]) it was 185 µM; on Shaker K+ channel (setting [8]), 244 µM; on Shaker K+ channel (setting [9]), 122 ± 4 µM; at Shaker K+ channel (setting [10]) it was 160 to 304 µM. Besides, the “δ (fractional distance through the membrane electrical field)” value on Shaker K+ channel was determined as 0.46 ± 0.10. On Shaker K+ channel (pH 7.4, 40 mV), the “potency relative to 4AP” value is “comparable to 4AP”.

For the compound `Cc1cnccc1N` [3Me4AP, 3-methyl-4-aminopyridine], the pKa is 9.82 ± 0.06 in data set [1] and greater than 9 in data set [1] (water, read-out: pKa). For the same compound, the logD in data set [2] (octanol/water (PBS)) is −1.23 and −1.232 ± 0.008. Further, the IC50 on Shaker K+ channel (IC50, 0 mV, pH 6.8, Hill fit) is 66 µM; against Shaker K+ channel (IC50, 0 mV, pH 7.4, Hill fit) it was 39 µM; at Shaker K+ channel (IC50, 0 mV, pH 9.1, Hill fit) it was 15 µM; against Shaker K+ channel (setting [11]), 40 µM; against Shaker K+ channel (setting [12]) it was 21 ± 1 µM; against Shaker K+ channel (setting [13]), 37 to 50 µM. In addition, the “δ (fractional distance through the membrane electrical field)” value on Shaker K+ channel turned out to be 0.43 ± 0.10.

With `Nc1ccncc1C(F)(F)F` [3CF34AP, 3-trifluoromethyl-4-aminopyridine], the pKa in data set [1] was 7.17 ± 0.04; in data set [1] (water, read-out: pKa), less than 8. The logD was found to be 0.91 in data set [2] (setting [4]) and 1.484 ± 0.009 in data set [2] (octanol/water (PBS)). Also, the IC50 was 249 µM against Shaker K+ channel (IC50, 0 mV, pH 6.8, Hill fit); 690 µM at Shaker K+ channel (IC50, 0 mV, pH 7.4, Hill fit); 2190 µM at Shaker K+ channel (IC50, 0 mV, pH 9.1, Hill fit); 1060 µM against Shaker K+ channel (setting [11]); 516 ± 51 µM on Shaker K+ channel (setting [12]); 690 to 1150 µM against Shaker K+ channel (setting [13]). For the same compound, the “δ (fractional distance through the membrane electrical field)” value on Shaker K+ channel is 0.46 ± 0.10.

With `COc1cnccc1N` [3MeO4AP, 3-methoxy-4-aminopyridine], the pKa in data set [1] was 9.18 ± 0.02; in data set [1] (water, read-out: pKa) it was greater than 9. In addition, the logD in data set [2] (setting [4]) was -0.76 ± 0.03. Further, the IC50 was 357 µM on Shaker K+ channel (setting [5]); 355 µM on Shaker K+ channel (setting [6]); 492 µM on Shaker K+ channel (setting [7]); 807 µM on Shaker K+ channel (setting [8]); 329 ± 17 µM at Shaker K+ channel (setting [9]); 310 to 992 µM at Shaker K+ channel (setting [10]). Also, the “δ (fractional distance through the membrane electrical field)” value at Shaker K+ channel came to 0.56 ± 0.02.

The values are drawn from paper PMC6952366 (Scientific Reports, 2020).
